From patent US20120128740A1, “NANOSTRUCTURED […] BASE, ITS PHARMACEUTICALLY ACCEPTABLE SALTS AND CO-CRYSTALS, COMPOSITIONS OF THEM, PROCESS FOR THE PREPARATION THEREOF AND PHARMACEUTICAL COMPOSITIONS CONTAINING THEM” (priority 2009, published 2012)

Legend:
[1] = Visual observation of wettability by stereomicroscope; type: physicochemical; conditions: one drop of distillate water on 0.1 mg powder
Protocol: Wettability of nanostructured Sildenafil Citrate particles was investigated in distilled water and was visualized by stereomicroscope equipped with CCD camera. 0.1 mg reference and nanostructure Sildenafil powder was placed to the slide and then one drop of distillate water was added to the powder.

[2] = Particle size concluded from X-ray diffractograms; type: physicochemical; conditions: XRD
Excerpt: The wide reflection between 15 and 20 20 values indicates the amorphous structure of the Carbopol 971. The characteristic reflections of the crystalline Sildenafil citrate can be found on the XRD diffractogram of nanosized Sildenafil citrate, but with lower intensity.

[3] = cited from earlier work

CCCc1nn(C)c2c(=O)[nH]c(-c3cc(S(=O)(=O)N4CCN(C)CC4)ccc3OCC)nc12.O=C(O)CC(O)(CC(=O)O)C(=O)O [Sildenafil citrate, 1-[[3-(6,7-dihydro-1-methyl-7-oxo-3-propyl-1H-pyrazolo[4,3-d]pyrimidin-5-yl)-4-ethoxyphenyl]sulfonyl]-4-methylpiperazine citrate]
wettability [1]: stayed in their aggregated state | particle size from diffractograms [2]: 1-2 μm | absolute bioavailability ([3]; oral): 41% | dose dependence of AUC and cmax ([3]; single doses from 1.25 to 200 mg): dose-proportional
